This passage reports IC50 and Ki results from patent US10676485B2, “Macrocyclic MCL-1 inhibitors and methods of use” (AbbVie Inc., priority 2017, dated 2020).

As a reminder, the IC50 is the concentration that gives 50% inhibition. As usually defined, the Ki is a measure of affinity in units of concentration, obtained from inhibition or displacement.

Read-outs that look alike come from different tables or passages of the source.

In experiment [1] the test system is AMO-1 human multiple myeloma tumor cell line. The experiment can be described thus: AMO-1 cell viability assay (CellTiter-Glo). The experiment is classed as cell-based. The note with it: AMO1, read-out: AMO-1 Viability IC50 (μM), 10% FBS, 24 hours of compound treatment. (In general: ATP-based viability assays read luminescence as a measure of living cells.)
The target of another experiment is GST-MCL-1 (Homo sapiens (Human), UniProt Q07820). The experiment can be described thus: TR-FRET MCL-1 binding assay (competition with probe F-Bak). The protocol: For the assay, an acoustic dispenser was used to prepare dilution series from 10 mM test compounds in 100% DMSO and directly transfer 160 nL into low volume 384-well assay plates. 8 μL of a protein/probe/antibody mix was then added to each well resulting in final concentrations listed below: Test compound: 11 three-fold dilutions beginning at 25 μM
Sequence of GST-MCL-1 (Q07820 whole entry): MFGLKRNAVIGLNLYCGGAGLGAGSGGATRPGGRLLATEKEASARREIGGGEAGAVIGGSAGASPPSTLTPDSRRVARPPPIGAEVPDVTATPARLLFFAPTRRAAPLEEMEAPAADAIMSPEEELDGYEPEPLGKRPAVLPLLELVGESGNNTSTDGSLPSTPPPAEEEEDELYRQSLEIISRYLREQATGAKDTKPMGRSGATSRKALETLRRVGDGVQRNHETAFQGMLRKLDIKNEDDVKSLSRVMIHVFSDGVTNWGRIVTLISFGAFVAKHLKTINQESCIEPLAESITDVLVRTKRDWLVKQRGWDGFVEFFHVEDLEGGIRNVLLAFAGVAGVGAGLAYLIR
The samples were then mixed on a shaker for 1 minute and incubated for an additional 2 hours at room temperature. For each assay plate, a probe/antibody and protein/antibody/probe mixture were included as a negative and a positive control, respectively. Fluorescence was measured on the Envision (Perkin Elmer) using a 340/35 nm excitation filter and 520/525 (F-Bak) and 495/510 nm (Tb-labeled anti-his antibody) emission filters. […] The TR-FRET assay can be performed in the presence of varying concentrations of human serum (HS) or fetal bovine serum (FBS). Compounds were tested both without HS and in the presence of 10% HS.

Experiment [2] deals with NCI-H929 human multiple myeloma tumor cell line. The experiment can be described thus: NCI-H929 cell viability assay (CellTiter-Glo). The experiment is classed as cell-based. As to conditions: NCI-H929, read-out: H929 Viability IC50 (μM), 10% FBS, 24 hours of compound treatment.
Experimental: In one exemplary set of conditions, NCI-H929 or AMO-1 (ATCC. Manassas, Va.) were plated 4.000 cells per well in 384-well tissue culture plates (Corning. Corning, N.Y.) in a total volume of 25 μL RPMI tissue culture medium supplemented with 10% fetal bovine serum (Sigma-Aldrich, St. Louis, Mo.) and treated with a 3-fold serial dilution of the compounds of interest with a Labcyte Echo from a final concentration of 10 μM to 0.0005 μM. Each concentration was tested in duplicate at least 3 independent times. A luminescent signal proportional to the number of viable cells following 24 hours of compound treatment was determined using the CellTiter-Glo® Luminescent Cell Viability Assay according to the manufacturer's recommendations (Promega Corp., Madison, Wis.). The plates were read in a Perkin Elmer Envision using a Luminescence protocol. To generate dose response curves the data is normalized to percent viability by setting the averages of the staurosporine (10 uM) and DMSO only control wells to 0% and (00)% viability respectively. The IC50 values for the compounds are generated by fitting the normalized data with Accelrys Assay Explorer 3.3 to a sigmoidal curve model using linear regression.
[3] abbreviates: read-out: MCL-1 Binding Ki (nM, 10% HS), in the presence of 10% HS.
The mark [4] stands for this setting: without HS, read-out: MCL-1 Binding Ki.

On to `COc1ccccc1-c1nccc(COc2ccc3cc2C[C@H](C(=O)O)Oc2ncnc4sc(C[C@@H]5COCCO5)c(c24)-c2c(C)c(Cl)c(c(Cl)c2C)O[C@H](CN2CCN(C)CC2)CO3)n1` [Example 18, (7R,16R)-19,23-dichloro-1-{[(2R)-1,4-dioxan-2-yl]methyl}-10-{[2-(2-methoxyphenyl)pyrimidin-4-yl]methoxy}-20,22-dimethyl-16-[(4-methylpiperazin-1-yl)methyl]-7,8,15,16-tetrahydro-18,21-etheno-13,9-(metheno)-6,14,17-trioxa-2-thia-3,5-diazacyclononadeca[1,2,3-cd]indene-7-carboxylic acid], for which the IC50 in experiment [1] was 0.00612 µM; in experiment [2], 0.00995 µM. The values for the Ki on GST-MCL-1 (setting [3]) and on GST-MCL-1 (setting [4]) were 0.24 nM and 0.111 nM, respectively.
As for `Cc1c(Cl)c2c(Cl)c(C)c1-c1c(C3=CCCC3)sc3ncnc(c13)O[C@@H](C(=O)O)Cc1cc(ccc1OCc1ccnc(C3=CC[C@](F)(COC[C@H]4COCCO4)CC3)n1)OC[C@@H](CN1CCN(C)CC1)O2` [Example 34, (7R,16R)-19,23-dichloro-1-(cyclopent-1-en-1-yl)-10-({2-[(4S)-4-({[(2R)-1,4-dioxan-2-yl]methoxy}methyl)-4-fluorocyclohex-1-en-1-yl]pyrimidin-4-yl}methoxy)-20,22-dimethyl-16-[(4-methylpiperazin-1-yl)methyl]-7,8,15,16-tetrahydro-18,21-etheno-13,9-(metheno)-6,14,17-trioxa-2-thia-3,5-diazacyclononadeca[1,2,3-cd]indene-7-carboxylic acid], the IC50 is 0.000235 µM in experiment [1] and 0.001 µM in experiment [2]. The results for the inhibition constant Ki at GST-MCL-1 (setting [3]) and at GST-MCL-1 (setting [4]) were 0.54 nM and 0.03 nM, respectively.
As to `Cc1c(Cl)c2c(Cl)c(C)c1-c1c(C3=CCCC3)sc3ncnc(c13)O[C@@H](C(=O)O)Cc1cc(ccc1OCc1ccnc([C@H]3CC[C@H](OCC4COCCO4)CC3)n1)OC[C@@H](CN1CCN(C)CC1)O2` (stereo partly drawn) [Example 32, (7R,16R)-19,23-dichloro-1-(cyclopent-1-en-1-yl)-10-[(2-{(1r,4r)-4-[(1,4-dioxan-2-yl)methoxy]cyclohexyl}pyrimidin-4-yl)methoxy]-20,22-dimethyl-16-[(4-methylpiperazin-1-yl)methyl]-7,8,15,16-tetrahydro-18,21-etheno-13,9-(metheno)-6,14,17-trioxa-2-thia-3,5-diazacyclononadeca[1,2,3-cd]indene-7-carboxylic acid], the IC50 in experiment [1] was determined as 0.00017 µM; in experiment [2], 0.000296 µM. Besides, the results for the inhibition constant Ki at GST-MCL-1 (setting [3]) and at GST-MCL-1 (setting [4]) were 0.27 nM and 0.022 nM, respectively.
For `Cc1c2ccc(c1Cl)O[C@H](CN1CCN(C)CC1)COc1ccc(OCc3ccnc(C4COCCO4)n3)c(c1)C[C@H](C(=O)O)Oc1ncnc3sc(-c4ccc(F)cc4)c-2c13` (stereo partly drawn) [Example 4, (7R,16R,21S)-19-chloro-10-{[2-(1,4-dioxan-2-yl)pyrimidin-4-yl]methoxy}-1-(4-fluorophenyl)-20-methyl-16-[(4-methylpiperazin-1-yl)methyl]-7,8,15,16-tetrahydro-18,21-etheno-13,9-(metheno)-6,14,17-trioxa-2-thia-3,5-diazacyclononadeca[1,2,3-cd]indene-7-carboxylic acid], the IC50 in experiment [1] was 0.00273 µM; in experiment [2], 0.00572 µM. For the same compound, the Ki at GST-MCL-1 (setting [3]) turned out to be 0.32 nM; at GST-MCL-1 (setting [4]), 0.055 nM.
Take `Cc1c(Cl)c2c(Cl)c(C)c1-c1c(-c3ccc(F)cc3)sc3ncnc(c13)O[C@@H](C(=O)O)Cc1cc(ccc1OCc1ccnc([C@H]3CC[C@](F)(COC[C@@H]4COCCO4)CC3)n1)OC[C@@H](CN1CCN(C)CC1)O2` [Example 28, (7R,16R)-19,23-dichloro-10-({2-[(1R,4s)-4-({[(2S)-1,4-dioxan-2-yl]methoxy}methyl)-4-fluorocyclohexyl]pyrimidin-4-yl}methoxy)-1-(4-fluorophenyl)-20,22-dimethyl-16-[(4-methylpiperazin-1-yl)methyl]-7,8,15,16-tetrahydro-18,21-etheno-13,9-(metheno)-6,14,17-trioxa-2-thia-3,5-diazacyclononadeca[1,2,3-cd]indene-7-carboxylic acid]: the IC50 in experiment [1] came out at 0.000211 µM; in experiment [2], 0.000337 µM. For the same compound, the Ki at GST-MCL-1 (setting [3]) was found to be 0.18 nM; on GST-MCL-1 (setting [4]), 0.017 nM.
Turning to `Cc1c(Cl)c2c(Cl)c(C)c1-c1c(C3=CCCC3)sc3ncnc(c13)O[C@@H](C(=O)O)Cc1cc(ccc1OCc1ccnc([C@H]3CC[C@](F)(COC[C@@H]4COCCO4)CC3)n1)OC[C@@H](CN1CCN(C)CC1)O2` [Example 33, (7R,16R)-19,23-dichloro-1-(cyclopent-1-en-1-yl)-10-({2-[(1R,4s)-4-({[(2S)-1,4-dioxan-2-yl]methoxy}methyl)-4-fluorocyclohexyl]pyrimidin-4-yl}methoxy)-20,22-dimethyl-16-[(4-methylpiperazin-1-yl)methyl]-7,8,15,16-tetrahydro-18,21-etheno-13,9-(metheno)-6,14,17-trioxa-2-thia-3,5-diazacyclononadeca[1,2,3-cd]indene-7-carboxylic acid], the IC50 stood at 0.000222 µM in experiment [1] and 0.000586 µM in experiment [2]. The inhibition constant Ki on GST-MCL-1 (setting [3]) was determined as 0.3 nM; at GST-MCL-1 (setting [4]) it was 0.023 nM.
On to `Cc1c(Cl)c2c(Cl)c(C)c1-c1c(-c3ccc(F)cc3)sc3ncnc(c13)O[C@@H](C(=O)O)Cc1cc(ccc1OCc1ccnc(-c3ccc(OC[C@H]4COCCO4)nc3)n1)OC[C@@H](CN1CCN(C)CC1)O2` [Example 5, (7R,16R)-19,23-dichloro-10-{[2-(6-{[(2R)-1,4-dioxan-2-yl]methoxy}pyridin-3-yl)pyrimidin-4-yl]methoxy}-1-(4-fluorophenyl)-20,22-dimethyl-16-[(4-methylpiperazin-1-yl)methyl]-7,8,15,16-tetrahydro-18,21-etheno-13,9-(metheno)-6,14,17-trioxa-2-thia-3,5-diazacyclononadeca[1,2,3-cd]indene-7-carboxylic acid], for which the IC50 in experiment [1] came to 0.000178 µM; in experiment [2], 0.00037 µM. For the same compound, the Ki on GST-MCL-1 (setting [3]) is 0.71 nM; on GST-MCL-1 (setting [4]), 0.048 nM.
For `Cc1c(Cl)c2c(Cl)c(C)c1-c1c(-c3ccc(F)cc3)sc3ncnc(c13)O[C@@H](C(=O)O)Cc1cc(ccc1OCc1cncc(-c3ccc(OC[C@H]4COCCO4)cc3)n1)OC[C@@H](CN1CCN(C)CC1)O2` [Example 16, (7R,16R)-19,23-dichloro-10-{[6-(4-{[(2R)-1,4-dioxan-2-yl]methoxy}phenyl)pyrazin-2-yl]methoxy}-1-(4-fluorophenyl)-20,22-dimethyl-16-[(4-methylpiperazin-1-yl)methyl]-7,8,15,16-tetrahydro-18,21-etheno-13,9-(metheno)-6,14,17-trioxa-2-thia-3,5-diazacyclononadeca[1,2,3-cd]indene-7-carboxylic acid] the same measures were 0.000245 µM, 0.000592 µM, 0.83 nM and 0.048 nM.
Regarding `Cc1c(Cl)c2c(Cl)c(C)c1-c1c(-c3ccc(F)cc3)sc3ncnc(c13)O[C@@H](C(=O)O)Cc1cc(ccc1OCc1ccnc([C@H]3CC[C@H](COC[C@H]4COCCO4)CC3)n1)OC[C@@H](CN1CCN(C)CC1)O2` [Example 51, (7R,16R)-19,23-dichloro-10-({2-[(1R,4r)-4-({[(2S)-1,4-dioxan-2-yl]methoxy}methyl)cyclohexyl]pyrimidin-4-yl}methoxy)-1-(4-fluorophenyl)-20,22-dimethyl-16-[(4-methylpiperazin-1-yl)methyl]-7,8,15,16-tetrahydro-18,21-etheno-13,9-(metheno)-6,14,17-trioxa-2-thia-3,5-diazacyclononadeca[1,2,3-cd]indene-7-carboxylic acid], the IC50 came out at 0.000267 µM in experiment [1] and 0.000299 µM in experiment [2]. Besides, the Ki was 0.131 nM at GST-MCL-1 (setting [3]) and below 0.01 nM at GST-MCL-1 (setting [4]).
Take `Cc1c(Cl)c2c(Cl)c(C)c1-c1c(-c3ccc(F)cc3)sc3ncnc(c13)O[C@@H](C(=O)O)Cc1cc(ccc1OCc1ccnc(-c3ccc(OC[C@H]4COCCO4)cc3)n1)OC[C@@H](CN1CCN(C)CC1)O2` [Example 2, (7R,16R)-19,23-dichloro-10-{[2-(4-{[(2R)-1,4-dioxan-2-yl]methoxy}phenyl)pyrimidin-4-yl]methoxy}-1-(4-fluorophenyl)-20,22-dimethyl-16-[(4-methylpiperazin-1-yl)methyl]-7,8,15,16-tetrahydro-18,21-etheno-13,9-(metheno)-6,14,17-trioxa-2-thia-3,5-diazacyclononadeca[1,2,3-cd]indene-7-carboxylic acid]: the IC50 in experiment [1] was determined as 0.00019 µM; in experiment [2], 0.0033 µM. Besides, the inhibition constant Ki was found to be 1.04 nM at GST-MCL-1 (setting [3]) and 0.052 nM at GST-MCL-1 (setting [4]).
In the case of `Cc1c(Cl)c2c(Cl)c(C)c1-c1c(-c3ccc(F)cc3)sc3ncnc(c13)O[C@@H](C(=O)O)Cc1cc(ccc1OCc1ccnc(C3(COC[C@H]4COCCO4)CCC3)n1)OC[C@@H](CN1CCN(C)CC1)O2` [Example 11, (7R,16R)-19,23-dichloro-10-({2-[1-({[(2S)-1,4-dioxan-2-yl]methoxy}methyl)cyclobutyl]pyrimidin-4-yl}methoxy)-1-(4-fluorophenyl)-20,22-dimethyl-16-[(4-methylpiperazin-1-yl)methyl]-7,8,15,16-tetrahydro-18,21-etheno-13,9-(metheno)-6,14,17-trioxa-2-thia-3,5-diazacyclononadeca[1,2,3-cd]indene-7-carboxylic acid], the IC50 in experiment [1] amounted to 0.000188 µM; in experiment [2], 0.000545 µM.
